Measured values published in ChEMBL document CHEMBL1221330, “N-tetrahydrothiochromenoisoxazole-1-carboxamides as selective antagonists of cloned human 5-HT2B” (Bioorg Med Chem Lett, 2010).
Each block holds one compound with its values, some of them ahead of it.

Key:
[1] = target: T1, 5-hydroxytryptamine receptor 2A (Homo sapiens, UniProt P28223); test: Displacement of [3H]Ketanserin from human 5HT2A receptor at 10 uM
[2] = target: T2, 5-hydroxytryptamine receptor 2B (Homo sapiens, UniProt P41595); test: Displacement of [3H]LSD from human 5HT2B receptor at 10 uM
[3] = target: T3, 5-hydroxytryptamine receptor 2C (Homo sapiens) (UniProt P28335); test: Displacement of [3H]Mesulergine from human 5HT2C receptor at 10 uM
T3 sequence (whole entry): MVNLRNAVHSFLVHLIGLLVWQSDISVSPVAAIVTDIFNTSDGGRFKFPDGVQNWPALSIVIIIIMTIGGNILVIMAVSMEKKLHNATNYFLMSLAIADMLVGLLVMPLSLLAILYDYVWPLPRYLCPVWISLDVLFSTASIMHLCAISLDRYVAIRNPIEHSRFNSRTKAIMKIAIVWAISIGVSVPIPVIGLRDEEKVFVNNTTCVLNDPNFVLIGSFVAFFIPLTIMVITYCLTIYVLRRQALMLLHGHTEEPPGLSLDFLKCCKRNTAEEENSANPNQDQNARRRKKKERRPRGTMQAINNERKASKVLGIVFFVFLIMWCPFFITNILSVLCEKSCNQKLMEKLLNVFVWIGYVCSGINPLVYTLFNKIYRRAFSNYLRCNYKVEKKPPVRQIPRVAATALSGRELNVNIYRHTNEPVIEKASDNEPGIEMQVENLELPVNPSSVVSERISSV

[4] = target: T1, 5-hydroxytryptamine receptor 2A; test: Displacement of [3H]Ketanserin from human 5HT2A receptor
[5] = target: T2, 5-hydroxytryptamine receptor 2B; test: Displacement of [3H]LSD from human 5HT2B receptor
[6] = target: T4, 5-hydroxytryptamine receptor 2C (Homo sapiens, UniProt P28335); test: Displacement of [3H]Mesulergine from human 5HT2C receptor
T4 sequence (P28335 whole entry): T3 sequence (whole entry)

[7] = target: 5-hydroxytryptamine receptor 1A (Homo sapiens) (UniProt P08908); test: Displacement of [3H]8-OH-DPAT from human 5HT1A receptor at 10 uM
[8] = target: 5-hydroxytryptamine receptor 1B (Homo sapiens) (UniProt P28222); test: Displacement of [3H][…] from human 5HT1B receptor at 10 uM
[9] = target: 5-hydroxytryptamine receptor 1D (Homo sapiens) (UniProt P28221); test: Displacement of [3H][…] from human 5HT1D receptor at 10 uM
[10] = target: 5-hydroxytryptamine receptor 1E (Homo sapiens) (UniProt P28566); test: Displacement of [3H]5-HT from human 5HT1E receptor at 10 uM
[11] = target: 5-hydroxytryptamine receptor 3A (Homo sapiens) (UniProt P46098); test: Displacement of [3H]LY278584 from human 5HT3 receptor at 10 uM
[12] = target: 5-hydroxytryptamine receptor 5A (Homo sapiens) (UniProt P47898); test: Displacement of [3H]LSD from human 5HT5A receptor at 10 uM
[13] = target: 5-hydroxytryptamine receptor 7 (Homo sapiens) (UniProt P34969); test: Displacement of [3H]LSD from human 5HT7 receptor at 10 uM
[14] = target: Alpha-1A adrenergic receptor (Homo sapiens) (UniProt P35348); test: Displacement of [3H]Prazosin from human adrenergic alpha1A receptor at 10 uM
[15] = target: Beta-1 adrenergic receptor (Homo sapiens) (UniProt P08588); test: Displacement of [125I]Iodopindolol from human adrenergic beta-1 receptor at 10 uM
[16] = target: Beta-2 adrenergic receptor (Homo sapiens) (UniProt P07550); test: Displacement of [125I]Iodopindolol from human adrenergic beta2 receptor at 10 uM
[17] = target: Beta-3 adrenergic receptor (Homo sapiens) (UniProt P13945); test: Displacement of [125I]Iodopindolol from human adrenergic beta3 receptor at 10 uM
[18] = target: D(1A) dopamine receptor (Homo sapiens) (UniProt P21728); test: Displacement of [3H][…] from human dopamine D1 receptor at 10 uM
[19] = target: D(2) dopamine receptor (Homo sapiens) (UniProt P14416); test: Displacement of [3H]N-methylspiperone from human dopamine D2 receptor at 10 uM
[20] = target: D(3) dopamine receptor (Homo sapiens) (UniProt P35462); test: Displacement of [3H]N-methylspiperone from human dopamine D3 receptor at 10 uM
[21] = target: D(4) dopamine receptor (Homo sapiens) (UniProt P21917); test: Displacement of [3H]N-methylspiperone from human dopamine D4 receptor at 10 uM
[22] = target: T5, Sodium-dependent dopamine transporter (Homo sapiens, UniProt Q01959); test: Displacement of [3H][…] from human DAT at 10 uM
[23] = target: Delta-type opioid receptor (Homo sapiens) (UniProt P41143); test: Displacement of [3H]DADLE from human delta opioid receptor at 10 uM
[24] = target: Histamine H1 receptor (Homo sapiens) (UniProt P35367); test: Displacement of [3H]Pyrilamine from human histamine H1 receptor at 10 uM
[25] = target: Histamine H2 receptor (Homo sapiens) (UniProt P25021); test: Displacement of [3H]Tiotidine from human histamine H2 receptor at 10 uM
[26] = target: Histamine H3 receptor (Homo sapiens) (UniProt Q9Y5N1); test: Displacement of [3H]alpha-methylhistamine from human histamine H3 receptor at 10 uM
[27] = target: Histamine H4 receptor (Homo sapiens) (UniProt Q9H3N8); test: Displacement of [3H]Histamine from human histamine H4 receptor at 10 uM
[28] = target: Kappa-type opioid receptor (Homo sapiens) (UniProt P41145); test: Displacement of [3H]U69593 from human kappa opioid receptor at 10 uM
[29] = target: Muscarinic acetylcholine receptor M1 (Homo sapiens) (UniProt P11229); test: Displacement of [3H]QNB from human muscarinic M1 receptor at 10 uM
[30] = target: Muscarinic acetylcholine receptor M2 (Homo sapiens) (UniProt P08172); test: Displacement of [3H]QNB from human muscarinic M2 receptor at 10 uM
[31] = target: Muscarinic acetylcholine receptor M3 (Homo sapiens) (UniProt P20309); test: Displacement of [3H]QNB from human muscarinic M3 receptor at 10 uM
[32] = target: Muscarinic acetylcholine receptor M4 (Homo sapiens) (UniProt P08173); test: Displacement of [3H]QNB from human muscarinic M4 receptor at 10 uM
[33] = target: Muscarinic acetylcholine receptor M5 (Homo sapiens) (UniProt P08912); test: Displacement of [3H]QNB from human muscarinic M5 receptor at 10 uM
[34] = target: T6, Sodium-dependent noradrenaline transporter (Homo sapiens, UniProt P23975); test: Displacement of [3H]Nisoxetine from human NET at 10 uM
[35] = target: T7, Sodium-dependent serotonin transporter (Homo sapiens, UniProt P31645); test: Displacement of [3H]Citalopram from human SERT at 10 uM
[36] = target: Sigma non-opioid intracellular receptor 1 (Homo sapiens) (UniProt Q99720); test: Displacement of [3H]Pentazocine from human sigma 1 receptor at 10 uM
Homo sapiens = species: Homo sapiens; test: Displacement of [3H]DTG from human sigma 2 receptor at 10 uM
[37] = target: T5, Sodium-dependent dopamine transporter; test: Displacement of [3H][…] from human DAT
[38] = target: T6, Sodium-dependent noradrenaline transporter; test: Displacement of [3H]Nisoxetine from human NET
[39] = target: T7, Sodium-dependent serotonin transporter; test: Displacement of [3H]Citalopram from human SERT
[40] = target: T2, 5-hydroxytryptamine receptor 2B; test: Agonist activity at human 5HT2B receptor assessed as 5HT-induced calcium mobilization at 10 uM by FLIPR assay relative to 5HT; assay type: functional
[41] = target: T2, 5-hydroxytryptamine receptor 2B; test: Antagonist activity at human 5HT2B receptor assessed as inhibition of 10633-induced calcium mobilization by FLIPR assay; assay type: functional
[42] = target: T2, 5-hydroxytryptamine receptor 2B; test: Agonist activity at human 5HT2B receptor assessed as 10633-induced calcium mobilization by FLIPR assay; assay type: functional
[43] = target: T4, 5-hydroxytryptamine receptor 2C; test: Agonist activity at human 5HT2C receptor assessed as 5HT-induced calcium mobilization by FLIPR assay; assay type: functional
[44] = target: T4, 5-hydroxytryptamine receptor 2C; test: Agonist activity at human 5HT2C receptor assessed as 10633-induced calcium mobilization by FLIPR assay; assay type: functional
[45] = target: T2, 5-hydroxytryptamine receptor 2B; test: Agonist activity at human 5HT2B receptor assessed as 5HT-induced calcium mobilization by FLIPR assay; assay type: functional
[46] = target: Mu-type opioid receptor (Homo sapiens) (UniProt P35372); test: Displacement of [3H]DAMGO from human mu opioid receptor at 10 uM

T1 sequence (P28223 whole entry): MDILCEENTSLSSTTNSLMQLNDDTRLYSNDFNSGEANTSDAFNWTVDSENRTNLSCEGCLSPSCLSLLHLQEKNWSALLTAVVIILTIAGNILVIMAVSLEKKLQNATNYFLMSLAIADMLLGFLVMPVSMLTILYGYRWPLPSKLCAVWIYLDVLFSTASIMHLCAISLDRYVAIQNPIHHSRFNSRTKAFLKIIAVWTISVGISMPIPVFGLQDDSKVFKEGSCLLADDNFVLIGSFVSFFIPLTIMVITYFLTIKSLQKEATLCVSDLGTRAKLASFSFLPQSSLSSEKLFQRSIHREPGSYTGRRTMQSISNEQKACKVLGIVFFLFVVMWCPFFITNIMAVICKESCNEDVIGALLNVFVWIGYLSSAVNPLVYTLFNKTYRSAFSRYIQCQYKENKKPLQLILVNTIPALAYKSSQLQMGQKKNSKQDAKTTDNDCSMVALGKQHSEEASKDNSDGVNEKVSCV
T2 sequence (P41595 whole entry): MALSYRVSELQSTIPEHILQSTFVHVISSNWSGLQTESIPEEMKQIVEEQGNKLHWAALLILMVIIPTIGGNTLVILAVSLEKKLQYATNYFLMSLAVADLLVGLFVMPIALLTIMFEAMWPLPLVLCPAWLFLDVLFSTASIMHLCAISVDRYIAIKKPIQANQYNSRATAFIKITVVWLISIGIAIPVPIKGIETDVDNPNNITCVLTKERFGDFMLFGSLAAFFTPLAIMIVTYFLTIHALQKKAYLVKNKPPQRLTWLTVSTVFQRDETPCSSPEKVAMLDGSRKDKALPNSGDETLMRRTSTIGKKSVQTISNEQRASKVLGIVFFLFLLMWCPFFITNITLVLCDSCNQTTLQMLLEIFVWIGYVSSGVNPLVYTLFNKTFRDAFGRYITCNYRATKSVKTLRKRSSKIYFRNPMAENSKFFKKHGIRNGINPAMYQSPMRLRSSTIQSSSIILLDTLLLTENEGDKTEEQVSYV
T6 sequence (P23975 whole entry): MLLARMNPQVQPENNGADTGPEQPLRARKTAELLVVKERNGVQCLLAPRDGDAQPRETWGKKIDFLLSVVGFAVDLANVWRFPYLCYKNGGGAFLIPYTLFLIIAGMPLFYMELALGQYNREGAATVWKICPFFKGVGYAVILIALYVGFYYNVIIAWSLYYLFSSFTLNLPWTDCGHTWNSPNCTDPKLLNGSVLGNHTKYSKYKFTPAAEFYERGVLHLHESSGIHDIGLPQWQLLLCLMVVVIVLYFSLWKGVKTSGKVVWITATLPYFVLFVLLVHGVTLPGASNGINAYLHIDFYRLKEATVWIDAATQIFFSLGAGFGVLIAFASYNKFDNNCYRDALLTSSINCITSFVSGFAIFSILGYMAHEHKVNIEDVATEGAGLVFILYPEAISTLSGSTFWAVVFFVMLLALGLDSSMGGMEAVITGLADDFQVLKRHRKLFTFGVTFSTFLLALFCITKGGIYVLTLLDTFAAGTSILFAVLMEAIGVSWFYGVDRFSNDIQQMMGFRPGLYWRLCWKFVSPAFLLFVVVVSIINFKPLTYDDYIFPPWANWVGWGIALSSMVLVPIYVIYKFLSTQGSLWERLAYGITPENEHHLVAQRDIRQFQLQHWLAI
T5 sequence (Q01959 whole entry): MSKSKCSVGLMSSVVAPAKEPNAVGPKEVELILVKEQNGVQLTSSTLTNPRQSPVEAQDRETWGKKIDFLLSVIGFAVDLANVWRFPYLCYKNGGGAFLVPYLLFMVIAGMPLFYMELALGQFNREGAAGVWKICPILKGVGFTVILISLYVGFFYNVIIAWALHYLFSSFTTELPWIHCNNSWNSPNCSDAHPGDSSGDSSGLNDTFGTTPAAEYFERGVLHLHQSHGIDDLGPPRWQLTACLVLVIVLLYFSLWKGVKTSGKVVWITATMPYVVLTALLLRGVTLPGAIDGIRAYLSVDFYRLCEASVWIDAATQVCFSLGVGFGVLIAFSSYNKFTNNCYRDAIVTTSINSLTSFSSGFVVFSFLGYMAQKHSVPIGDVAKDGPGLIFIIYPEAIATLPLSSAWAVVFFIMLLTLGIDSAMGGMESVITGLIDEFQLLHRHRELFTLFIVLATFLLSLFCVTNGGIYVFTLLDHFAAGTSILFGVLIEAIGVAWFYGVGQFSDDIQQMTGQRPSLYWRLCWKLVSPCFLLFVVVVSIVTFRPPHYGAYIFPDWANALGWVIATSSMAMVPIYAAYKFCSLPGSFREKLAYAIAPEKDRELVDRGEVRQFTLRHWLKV
Chain of Alpha-1A adrenergic receptor (Homo sapiens) (P35348 whole entry): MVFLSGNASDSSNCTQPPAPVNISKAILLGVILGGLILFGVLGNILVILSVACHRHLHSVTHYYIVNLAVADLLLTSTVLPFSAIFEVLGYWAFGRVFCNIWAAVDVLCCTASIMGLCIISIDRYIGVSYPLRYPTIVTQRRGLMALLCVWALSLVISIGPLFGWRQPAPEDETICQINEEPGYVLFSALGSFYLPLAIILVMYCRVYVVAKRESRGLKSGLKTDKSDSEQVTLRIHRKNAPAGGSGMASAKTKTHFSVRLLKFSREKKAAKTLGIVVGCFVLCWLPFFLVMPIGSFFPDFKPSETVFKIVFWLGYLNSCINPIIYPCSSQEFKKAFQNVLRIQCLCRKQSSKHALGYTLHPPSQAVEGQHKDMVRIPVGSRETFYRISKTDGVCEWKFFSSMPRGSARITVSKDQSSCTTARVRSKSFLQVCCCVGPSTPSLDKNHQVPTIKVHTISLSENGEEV
Chain of D(1A) dopamine receptor (Homo sapiens) (P21728 whole entry): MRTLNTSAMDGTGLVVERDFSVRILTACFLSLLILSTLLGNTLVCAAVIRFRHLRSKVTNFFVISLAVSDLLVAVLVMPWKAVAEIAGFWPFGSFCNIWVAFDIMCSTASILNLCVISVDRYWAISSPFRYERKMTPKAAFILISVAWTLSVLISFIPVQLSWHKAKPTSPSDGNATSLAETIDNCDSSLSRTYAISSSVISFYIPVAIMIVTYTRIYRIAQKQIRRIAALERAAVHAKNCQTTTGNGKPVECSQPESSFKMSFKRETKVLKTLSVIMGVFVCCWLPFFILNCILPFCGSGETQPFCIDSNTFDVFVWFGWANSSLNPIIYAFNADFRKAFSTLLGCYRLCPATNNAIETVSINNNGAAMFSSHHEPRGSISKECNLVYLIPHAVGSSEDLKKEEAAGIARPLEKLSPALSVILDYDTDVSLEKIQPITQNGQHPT
Chain of 5-hydroxytryptamine receptor 1A (Homo sapiens) (P08908 whole entry): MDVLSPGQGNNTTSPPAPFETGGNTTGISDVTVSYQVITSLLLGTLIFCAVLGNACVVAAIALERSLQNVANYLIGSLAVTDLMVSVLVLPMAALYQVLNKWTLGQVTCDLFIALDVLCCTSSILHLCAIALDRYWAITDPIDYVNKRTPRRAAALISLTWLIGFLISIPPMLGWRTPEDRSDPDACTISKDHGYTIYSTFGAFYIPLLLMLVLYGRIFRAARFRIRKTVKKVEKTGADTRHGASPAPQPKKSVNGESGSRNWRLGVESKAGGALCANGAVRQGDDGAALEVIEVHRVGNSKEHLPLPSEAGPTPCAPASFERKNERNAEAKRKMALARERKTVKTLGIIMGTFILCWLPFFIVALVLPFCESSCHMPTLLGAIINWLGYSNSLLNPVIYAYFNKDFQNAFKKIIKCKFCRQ
Chain of 5-hydroxytryptamine receptor 3A (Homo sapiens) (P46098 whole entry): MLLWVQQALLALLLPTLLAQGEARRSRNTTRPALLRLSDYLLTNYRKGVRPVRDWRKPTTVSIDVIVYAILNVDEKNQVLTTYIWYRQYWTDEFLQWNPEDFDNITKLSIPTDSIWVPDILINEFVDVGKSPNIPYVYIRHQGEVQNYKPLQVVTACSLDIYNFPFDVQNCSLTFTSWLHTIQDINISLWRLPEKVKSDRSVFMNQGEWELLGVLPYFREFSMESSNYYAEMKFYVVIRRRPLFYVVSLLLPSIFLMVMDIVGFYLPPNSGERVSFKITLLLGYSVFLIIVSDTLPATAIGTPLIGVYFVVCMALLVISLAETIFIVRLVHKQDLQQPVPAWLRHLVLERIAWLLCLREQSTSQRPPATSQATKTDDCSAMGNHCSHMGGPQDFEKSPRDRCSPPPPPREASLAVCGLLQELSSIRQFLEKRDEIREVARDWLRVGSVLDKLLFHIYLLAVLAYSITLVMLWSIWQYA
Chain of 5-hydroxytryptamine receptor 7 (Homo sapiens) (P34969 whole entry): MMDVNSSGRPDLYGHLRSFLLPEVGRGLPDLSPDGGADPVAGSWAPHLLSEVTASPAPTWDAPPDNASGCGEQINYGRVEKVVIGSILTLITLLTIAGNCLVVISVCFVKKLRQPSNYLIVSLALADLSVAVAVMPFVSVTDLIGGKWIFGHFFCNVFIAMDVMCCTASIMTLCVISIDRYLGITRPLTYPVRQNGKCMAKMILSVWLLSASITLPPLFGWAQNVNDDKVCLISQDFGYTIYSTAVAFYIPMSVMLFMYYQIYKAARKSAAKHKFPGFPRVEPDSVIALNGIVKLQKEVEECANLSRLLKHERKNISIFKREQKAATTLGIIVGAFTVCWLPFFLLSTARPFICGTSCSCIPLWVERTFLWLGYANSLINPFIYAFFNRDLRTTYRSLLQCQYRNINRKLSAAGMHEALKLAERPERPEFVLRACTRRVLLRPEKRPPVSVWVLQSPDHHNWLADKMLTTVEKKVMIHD
Chain of Histamine H1 receptor (Homo sapiens) (P35367 whole entry): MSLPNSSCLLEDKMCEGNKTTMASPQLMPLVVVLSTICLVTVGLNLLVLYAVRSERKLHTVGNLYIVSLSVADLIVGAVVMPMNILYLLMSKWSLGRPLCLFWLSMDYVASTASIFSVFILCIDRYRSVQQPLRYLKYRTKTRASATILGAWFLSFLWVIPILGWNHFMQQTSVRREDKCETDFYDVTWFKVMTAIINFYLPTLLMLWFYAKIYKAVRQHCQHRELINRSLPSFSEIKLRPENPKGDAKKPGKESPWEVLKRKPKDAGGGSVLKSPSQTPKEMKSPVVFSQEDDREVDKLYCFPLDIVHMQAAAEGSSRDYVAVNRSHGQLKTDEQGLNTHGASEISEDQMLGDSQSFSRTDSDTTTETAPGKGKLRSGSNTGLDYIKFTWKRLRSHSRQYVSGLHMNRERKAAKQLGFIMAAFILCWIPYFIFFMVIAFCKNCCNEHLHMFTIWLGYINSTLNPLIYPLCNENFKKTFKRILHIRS

inhibition [1]: 2.4%
inhibition [2]: 53.5%
inhibition [3]: 14.7%
Ki [4]: > 10 µM
Ki [5]: 6.6 µM
Ki [6]: > 10 µM
Structure (SMILES): CCCNC(=O)N1OCC2COc3ccccc3C21 (stereo unspecified)

inhibition [1]: 0.8%
inhibition [2]: 35.4%
inhibition [3]: 23.4%
Ki [4]: > 10 µM
Ki [5]: > 10 µM
Ki [6]: > 10 µM
Structure (SMILES): CCCCNC(=O)N1OCC2COc3ccccc3C21 (stereo unspecified)

inhibition [2]: 92%
inhibition [3]: 34.9%
Ki [4]: > 10 µM
Ki [5]: 0.489 µM
Ki [6]: > 10 µM
Structure (SMILES): CCCCNC(=O)N1OCC2CSc3ccc(F)cc3C21 (stereo unspecified)

inhibition [2]: 93%
inhibition [3]: 37.4%
Ki [4]: > 10 µM
Ki [5]: 0.384 µM
Ki [6]: > 10 µM
Structure (SMILES): CCCNC(=O)N1OCC2CSc3ccc(F)cc3C21 (stereo unspecified)

inhibition [1]: 11%
inhibition [2]: 71.6%
inhibition [3]: 56.7%
Ki [4]: > 10 µM
Ki [5]: 1.61 µM
Ki [6]: > 10 µM
Structure (SMILES): O=C(Nc1ccccc1)N1OCC2COc3ccccc3C21 (stereo unspecified)

inhibition [1]: 12.8%
inhibition [2]: 52.2%
inhibition [3]: 40.2%
Ki [4]: > 10 µM
Ki [5]: 4 µM
Ki [6]: > 10 µM
Structure (SMILES): Cc1ccccc1NC(=O)N1OCC2COc3ccccc3C21 (stereo unspecified)

inhibition [1]: 33.6%
inhibition [2]: 95.3%
inhibition [3]: 61.2%
Ki [4]: > 10 µM
Ki [5]: 0.223 µM
Ki [6]: 5.17 µM
Structure (SMILES): O=C(Nc1ccccc1)N1OCC2CSc3ccc(F)cc3C21 (stereo unspecified)

inhibition [1]: 5.5%
inhibition [2]: 75.5%
inhibition [3]: 28.1%
Ki [4]: > 10 µM
Ki [5]: 1.77 µM
Ki [6]: > 10 µM
Structure (SMILES): O=C(NC1CCCCC1)N1OCC2COc3ccccc3C21 (stereo unspecified)

inhibition [1]: -0.2%
inhibition [2]: 14.8%
inhibition [3]: 28.9%
Ki [4]: > 10 µM
Ki [5]: > 10 µM
Ki [6]: > 10 µM
Structure (SMILES): CC(C)NC(=O)N1OCC2COc3ccccc3C21 (stereo unspecified)

inhibition [1]: 6.2%
inhibition [2]: 102%
inhibition [3]: 30%
Ki [4]: > 10 µM
Ki [5]: 0.042 µM
Ki [6]: > 10 µM
inhibition [7]: 36.9%
inhibition [8]: 1.3%
inhibition [9]: 4.5%
inhibition [10]: -7.8%
inhibition [11]: -8.7%
inhibition [12]: 46.6%
inhibition [13]: 27.1%
inhibition [14]: 37.8%
inhibition [15]: 2.4%
inhibition [16]: 3.7%
inhibition [17]: 7.1%
inhibition [18]: 14%
inhibition [19]: 8.1%
inhibition [20]: 3.2%
inhibition [21]: 12%
inhibition [22]: 66.3%
inhibition [23]: -3.2%
inhibition [24]: -4.3%
inhibition [25]: 30.8%
inhibition [26]: -10%
inhibition [27]: -0.5%
inhibition [28]: 34.6%
inhibition [29]: 23.4%
inhibition [30]: 23.7%
inhibition [31]: 20.6%
inhibition [32]: 44.9%
inhibition [33]: 31.8%
inhibition [34]: 34.1%
inhibition [35]: 20.4%
inhibition [36]: 16.5%
inhibition (Homo sapiens): 1.1%
Ki [37]: > 10 µM
Ki [38]: > 10 µM
Ki [39]: > 10 µM
Efficacy [40]: 0.5%
IC50 [41]: 0.0427 µM
EC50 [42]: > 10 µM
EC50 [43]: 0.000724 µM
EC50 [44]: > 10 µM
EC50 [45]: 0.00398 µM
inhibition [46]: 8.9%
Structure (SMILES): O=C(NC1CCCCC1)N1OCC2CSc3ccc(F)cc3C21 (stereo unspecified)

inhibition [1]: 2.2%
inhibition [2]: 89.3%
inhibition [3]: 55.4%
Ki [4]: > 10 µM
Ki [5]: 0.569 µM
Ki [6]: > 10 µM
Structure (SMILES): CC(C)NC(=O)N1OCC2CSc3ccc(F)cc3C21 (stereo unspecified)

inhibition [1]: 12%
inhibition [2]: 43%
inhibition [3]: 25.9%
Ki [4]: > 10 µM
Ki [5]: > 10 µM
Ki [6]: > 10 µM
Structure (SMILES): CC(C)(C)NC(=O)N1OCC2COc3ccccc3C21 (stereo unspecified)
